{"source": "patent US6884600B1", "about": "“Protein phosphatase-1 catalytic subunit interactions” (Medical Research Council London, priority 1996, dated 2005)", "key": {"PP1 and PP2A": {"system": "PP1 and PP2A", "conditions": "refs [17], [19]; cited from earlier work"}, "PP1GL": {"system": "PP1GL", "experiment": "Phosphorylase phosphatase activity of PP1GL (hepatic glycogen particles)", "assay_type": "biochemical, rat", "experimental": "Hepatic glycogen particles were diluted in assay buffer to 0.6 phosphorylase phosphatase (PhP) mU per ml, incubated for 15 minutes at 30° C. with GM-(G63-T93) (closed circles), GM-(G63-K80) (open circles) or GM-(G63-N75) (closed triangles) and assayed as described in Example 1. The open triangles show the effect of GM-(G63-N75) which had been phosphorylated at Ser67 by PKA (pGM-(G63-N75)). Similar results were obtained in four experiments.\n(A) Hepatic glycogen protein particles containing PP1-GL were diluted and incubated for 15 min at 30° C. with the indicated concentrations of either M110[M1-F38] (open circles) or M110[M1-K35] (closed circles) and the phosphatase reactions were initiated by addition of ^32P-labelled glycogen phosphorylase. The results are expressed as a percentage of the activity determined in control incubations where the M110 peptides were omitted. Similar results were obtained in three separate experiments. (B) The experiment was carried out as in (A), except that the peptide GM[G63-N75] (“wild type”, WT) and variants in which either Val 66 (V66A) (closed triangles) or Phe 68 (F68A) (closed circles) were changed to Ala, were used instead of the M110 peptides. Similar results were obtained in three separate experiments.\n(§1) The myosin-associated form of PP1 (PP1M) was from chicken gizzard and the glycogen-associated form of PP1 (PP1G) from rabbit skeletal muscle. The β isoform of PP1c was released from PP1G by incubation for 2 hours in 2M LiBr, then purified by gel-filtration on a 30×1 cm column of Superose 12 (Pharmacia, Milton Keynes, U.K.) in the presence of 0.5M LiBr. Glycogen protein particles from rat liver were used as the source of hepatic PP1G Digoxygenin-labelled PP1c (γ1-isoform, hereafter termed PP1) was prepared as in [9]. GL was expressed in E. coli as a glutathione-S-transferase (GST) fusion protein [7], termed GST-GL. The catalytic subunit of PP2A from bovine heart (PP2AC) was provided by Dr R. MacKintosh in this Unit. The phosphorylatable myosin light chain (MLC20) and heavy meromyosin from chicken gizzard were a gift from Dr M. Ikebe (Case Western Reserve University, Cleveland, USA). Thrombin and benzamidine-Agarose were purchased from Sigma (Poole, UK).\n(§2) ^32P-labelled rabbit skeletal muscle phosphorylase a (containing 1.0 mol phosphate per mol subunit) was prepared by phosphorylation with phosphorylase kinase, ^32P-labelled rabbit skeletal muscle glycogen synthase (containing 1.5 mol/mol subunit in the sites 3 region) was prepared by phosphorylation with glycogen synthase kinase-3 [24]). ^32P-labelled chicken gizzard MLC20 and ^32P-labelled chicken gizzard heavy meromyosin (containing 1.0 mol phosphate per mol subunit) were prepared by phosphorylation with smooth muscle myosin light chain kinase. The dephosphorylation of phosphorylase a (10 μM), glycogen synthase (1 μM) and MLC20 (1 μM) and heavy meromyosin (1 μM) was carried out as in [24]. One unit of activity (U) was that amount which released […] of phosphate in one minute.\n(§3) PP1c was isolated from the rabbit skeletal muscle PP1-GM complex as described previously (Johnson et al, 1996). Glycogen particles isolated from rat liver (Schelling el al, 1988) served as the source of PP1-GL. The dephosphorylation of glycogen phosphorylase (10 μM) and the isolated MLC20 of smooth muscle myosin (1 μM) by PP1c was carried out as described previously (Cohen et al., 1988; Alessi et al., 1992)."}, "PP1c [1]": {"target": "T1, PP1c (Oryctolagus cuniculus, UniProt P62143)", "T1 construct": "from tissue; host or cells: rabbit skeletal muscle (PP1G dissociated with LiBr)", "T1 sequence (P62143 whole entry)": "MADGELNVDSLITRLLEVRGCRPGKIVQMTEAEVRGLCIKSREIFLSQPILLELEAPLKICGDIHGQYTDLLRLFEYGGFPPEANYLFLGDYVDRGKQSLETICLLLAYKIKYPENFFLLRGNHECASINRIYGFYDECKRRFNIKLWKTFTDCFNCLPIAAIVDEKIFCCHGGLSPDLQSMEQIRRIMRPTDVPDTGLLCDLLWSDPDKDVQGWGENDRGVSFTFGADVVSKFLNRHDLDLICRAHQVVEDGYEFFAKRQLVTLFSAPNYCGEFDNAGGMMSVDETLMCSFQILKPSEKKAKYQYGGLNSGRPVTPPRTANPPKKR", "experiment": "Phosphorylase phosphatase activity of PP1c", "assay_type": "biochemical, rabbit", "experimental": "(§4) A,B; Effects of M110-(M1-E309) (closed circles), M110-(M1-F38) (open circles) and M110-(D39-E309) (open triangles) on the MLC20 phosphatase […] and phosphorylase phosphatase (B) activities of PP1c were measured after incubating PP1c for 15 minutes at 30° C. with each fragment. The results are presented as a percentage of those obtained in experiments where the M110 fragments were omitted.\n(§5) C,D; The effect of M110-(M1-A150) (open circles) and M110-(L24-Y496) (closed circles) on the MLC20 phosphatase (C) and phosphorylase phosphatase (D) activities of PP1c were measured as in A,B.\n(B) The phosphorylase phosphatase activity of PP1c was assayed as in A in the presence or absence of 1 μM GM-(G63-T93) and 1.0 nM M110-(M1-E309). The results are presented (SEM for three experiments) as a percentage of the PP1c activity measured in the absence of GM-(63-T93), M110-(M1-F38) or M110-(M1-E309).\nas §1, §2, §3"}, "PP1c (γ1-isoform)": {"target": "PP1c (γ1-isoform) (Homo sapiens, UniProt P36873)", "sequence (P36873 whole entry, the tested form may be a part, canonical isoform)": "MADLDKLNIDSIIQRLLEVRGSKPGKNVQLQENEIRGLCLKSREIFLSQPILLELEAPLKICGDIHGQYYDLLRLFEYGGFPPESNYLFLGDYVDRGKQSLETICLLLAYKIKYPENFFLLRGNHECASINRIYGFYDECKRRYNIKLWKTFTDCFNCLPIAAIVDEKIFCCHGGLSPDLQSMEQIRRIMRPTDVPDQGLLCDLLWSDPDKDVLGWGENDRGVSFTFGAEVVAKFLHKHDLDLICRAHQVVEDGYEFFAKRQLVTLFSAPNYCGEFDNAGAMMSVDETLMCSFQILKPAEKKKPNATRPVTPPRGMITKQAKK", "experiment": "Far Western: GST-GM fusion proteins probed with digoxygenin-labelled PP1γ", "assay_type": "binding", "conditions": "GST-fusion proteins on blot probed with digoxygenin-labelled PP1γ", "excerpt": "GST-GM fusion proteins were electrophoresed on 10% SDS/polyacrylamide gels and stained with Coomassie blue (lanes 1-3) or, after transfer to nitrocellulose, probed with digoxygenin-labelled PP1γ (lanes 4-6) as in [9]. Lanes 1 and 4, GST-GM-(E2-D118); Lanes 2 and 5, GST-GM-(H100-P350); Lanes 3 and 6, GST. The positions of the marker proteins glycogen phosphorylase (97 kDa), bovine serum albumin (66 kDa), ovalbumin (43 kDa), carbonic anhydrase (29 kDa) and soybean trypsin inhibitor (20 kDa) are indicated.\nas §1, with “Thrombin and benzamidine-Agarose were purchased from Sigma (Poole, UK).” left out"}, "PP1c [2]": {"target": "T1, PP1c", "experiment": "MLC20 (myosin P-light chain) phosphatase activity of PP1c", "assay_type": "biochemical", "experimental": "as §4, §5\n(A) The MLC20 phosphatase activity of PP1c was assayed after incubation for 15 minutes at 30° C. in the presence or absence of 1 μM GM-(G63-T93) and either 0.1 μM M110-(M1-F38) or 0.1 nM M110-(M1-E309).\n(1-38, open circles) or M110[M1-K35] (1-35, closed circles) were incubated with PP1c for 15 min at 30° C. and reactions started with the ^32P-labelled MLC20 substrate. The results are expressed as a % of the activity determined in control incubations where the M110 peptides were omitted (100%). Similar results were obtained in three separate experiments.\nas §1, §2, §3\n^32P-labelled myosin P-light chains containing 1.0 mol phosphate per mol subunit was prepared by phosphorylation with smooth muscle myosin light chain kinase. The dephosphorylation of myosin P-light chain (1 μM) was carried out as in [4] and one unit of activity (U) was that amount which catalysed the release of 1 μmole of phosphate in one min. When assaying PP1M in immunoprecipitates from the myofibrillar extracts, the tubes were shaken continuously and 3 nM okadaic acid was included to inhibit any PP2A present."}, "PP1c [3]": {"target": "T1, PP1c", "experiment": "Glycogen synthase phosphatase activity of PP1c", "assay_type": "biochemical, rabbit", "experimental": "The glycogen synthase phosphatase activity of PP1c was measured after a 15 minute incubation at 30° C. with the indicated concentrations of M110-(M1-F38) and M110-(M1-E309). Similar results were obtained in three different experiments.\nas §2"}, "PP1c [4]": {"target": "T1, PP1c", "experiment": "Dephosphorylation of heavy meromyosin by PP1c", "assay_type": "biochemical, rabbit", "conditions": "data not shown", "experimental": "as §2"}}, "note": "Where two headings read alike, the source gives them in different places. No end group written: not given here."}
{"compound": "C=C1[C@@H](O)[C@@H]2O[C@]3(CC[C@H](/C=C/[C@@H](C)[C@@H]4CC(C)=C[C@@]5(O[C@H](C[C@@](C)(O)C(=O)O)CC[C@H]5O)O4)O3)CC[C@H]2O[C@@H]1[C@@H](O)C[C@H](C)[C@H]1O[C@@]2(CCCCO2)CC[C@H]1C", "note": "[okadaic acid]", "values": [{"measurement": "relative potency as inhibitor of PP1 and PP2A", "setting": "PP1 and PP2A", "result": "a much more potent inhibitor of PP2A than PP1"}]}
{"compound": "CO[C@H]([C@H](O)CC(=O)[C@@H](C)[C@@H](O)CC[C@@H](C)[C@@H]1O[C@]2(CC[C@@H](C)[C@H](CC[C@H](C)C(C)=O)O2)CC[C@@H]1C)[C@H](OC(=O)C[C@@H](O)C1=C(C)C(=O)OC1=O)C(C)C", "note": "[tautomycin]", "values": [{"measurement": "relative potency as inhibitor of PP1 and PP2A", "setting": "PP1 and PP2A", "result": "a much more potent inhibitor of PP1 than PP2A"}]}
{"compound": "GM-(E81-T93): peptide generated by cleaving GM-(G63-T93) with Lys-C endoproteinase (DCWELPSASTTFD; UniProt Q16821 81-93, looked up, fragment)", "values": [{"measurement": "effect on the phosphorylase phosphatase activity of PP1GL", "setting": "PP1GL; at concentrations up to 10 μM", "result": "no effect"}, {"measurement": "effect on the phosphorylase phosphatase activity of PP1c", "setting": "PP1c [1]; at concentrations up to 10 μM", "result": "no effect"}]}
{"compound": "GM-(G63-N75): synthetic 13 residue peptide, residues 63-75 of GM (GRRVSFADNFGFN)", "values": [{"measurement": "effect on the phosphorylase phosphatase activity of PP1GL", "setting": "PP1GL; hepatic glycogen particles containing PP1-GL", "result": "increased the phosphorylase phosphatase activity of PP1GL, but were less effective than GM-(G63-T93)"}, {"measurement": "effect on the phosphorylase phosphatase activity of PP1c", "setting": "PP1c [1]; at concentrations up to 10 μM", "result": "did not increase the phosphorylase phosphatase activity of PP1c significantly"}]}
{"compound": "GST: glutathione-S-transferase [reference compound]", "values": [{"measurement": "interaction with PP1 in Far Western experiments", "setting": "PP1c (γ1-isoform)", "result": "did not interact with PP1c"}, {"measurement": "effect on the MLC20 phosphatase activity of PP1c", "setting": "PP1c [2]", "result": "no effect"}, {"measurement": "effect on the phosphorylase phosphatase activity of PP1c", "setting": "PP1c [1]", "result": "no effect"}]}
{"compound": "MKMADAKQKRNEQLKRWIGSETDLEPPVVKRQKTKVKF [M110-(M1-F38)]", "values": [{"measurement": "effect on the dephosphorylation of glycogen synthase by PP1c", "setting": "PP1c [3]", "result": "greatly enhanced"}, {"measurement": "effect on the dephosphorylation of heavy meromyosin by PP1c", "setting": "PP1c [4]", "result": "stimulated the dephosphorylation of heavy meromyosin in a similar manner to the dephosphorylation of MLC20"}, {"measurement": "displacement of GL from PP1c", "setting": "PP1GL", "result": "capable of displacing GL from PP1GL"}, {"measurement": "increase in the phosphorylase phosphatase activity of PP1GL", "setting": "PP1GL; 10 μM peptide", "result": 3.5, "unit": "fold"}, {"measurement": "EC50", "setting": "PP1c [2]", "result": 10, "unit": "nM"}, {"measurement": "concentration needed to modulate the specificity of PP1c compared to thrombin-cleaved M110-(M1-E309)", "setting": "PP1c [2]", "result": "at least 100 fold higher"}, {"measurement": "effect on the MLC20 phosphatase activity of PP1c", "setting": "PP1c [2]", "result": "stimulate the MLC20 phosphatase activity of PP1c to the same extent as M110-(M1-E309)"}, {"measurement": "increase in PP1c activity towards MLC20 (maximal activation)", "setting": "PP1c [2]", "result": 3, "unit": "fold"}, {"measurement": "peptide concentration at maximal activation of the myosin light chain phosphatase activity of PP1c", "setting": "PP1c [2]", "result": 1, "unit": "µM"}, {"measurement": "effect on the phosphorylase phosphatase activity of PP1c", "setting": "PP1c [1]", "result": "did not inhibit the phosphorylase phosphatase activity of PP1c"}, {"measurement": "effect on the phosphorylase phosphatase activity of PP1c", "setting": "PP1c [1]; each peptide individually, at concentrations up to 1 μM", "result": "no effect"}]}
